Results published in patent publication US10996215B2, “Methods for determining drug efficacy for the treatment of diffuse large B-cell lymphoma, multiple myeloma, and myeloid cancers” (CELGENE CORPORATION, priority 2013, dated 2021).
pEC50: −log10 of the molar value.

What was measured:
[1] = system: other myeloid cancer cell lines; test: 4 d BrdU cell assay, sensitivity; format: cell-based; conditions: other cell lines of the panel, predominantly insensitive
Description: (§1) Sensitivity to lenalidomide treatment in a panel of myeloid cancer cell lines was evaluated by tritiated thymidine and/or BrdU assays.

AML cell line (HNT-34) = test: tandem-mass-tagged proteomics of global cellular protein levels; format: cell-based, human; conditions: 10 micromolar
Description: (§2) Samples were subjected to multiplexed quantitative mass spectrometry analysis. In particular, cell lysate was prepared from the samples, and was subjected to tandem protein digestion using LysC and trypsin, peptide labeling with either Tandem Mass Tag 6-plex or 10-plex reagents, and peptide fractionation. Multiplexed quantitative mass spectrometry data were collected on an Orbitrap Fusion mass spectrometer operating in a MS3 mode using synchronous precursor selection for the MS2 to MS3 fragmentation. MS/MS data were searched against a Uniprot human database with both the forward and reverse sequences using the SEQUEST algorithm. Additional data processing steps included controlling peptide and protein level false discovery rates, assembling proteins from peptides, and protein quantification from peptides. Each drug-treated sample has 3 replicates, each DMSO sample has 4 replicates.
(§3) T is the statistic calculated for the t.test. P.value represents statistical significance for the test. Adj.P.value represents FDR multiple testing correction of the P.values in previous parameter. B log odds that the protein is differentially abundant between the conditions (compound vs control).

[2] = system: del(5q) MDS cell line (MDS-L); test: as above; format: cell-based, human
Description: as §2, §3

CSNK1A1 (CK1α), Ikaros = test: MG-132, MLN-4924 or Compound A pre-treatment, Western analysis in HNT-34 cells; format: cell-based; conditions: 10 μM, 3 h or 6 h
CSNK1A1, Ikaros = test: Western analysis of BMMC or PBMC of lenalidomide-treated AML patients; format: in vivo; conditions: 50 mg daily
Description: 3-5 μg total protein from each sample was evaludated for CSNK1A1, Ikaros, and GAPDH expressions by western analysis.

ABC-DLBCL cell line = test: Tandem Mass Tag proteomics, lenalidomide vs Compound A; format: cell-based; conditions: ABC-DLBCL cell line; 10 uM; 24 h; vs DMSO
Text: Cells were harvested and proteins were fractionated using a basic pH reverse gradient method. Fractionated samples were labeled using a Tandem Mass Tag method.

[3] = system: DLBCL cell lines (GCB and ABC); test: tritiated thymidine incorporation proliferation assay; format: cell-based
Description: Cells were then cultured for 3 days at 37° C. Tritiated thymidine was applied to the cell culture for the final 6 hours and cells were then harvested onto filter plates. After the plates have dried, scintillation fluid was added to the plates and read on a Top-count reader.
The cells were then analyzed for proliferation using a ^3H-thymidine incorporation assay.
Proliferation was assessed through tritiated thymidine incorporation.

[4] = system: Aiolos, Ikaros, IRF4, Cereblon; test: Western blot of Aiolos, Ikaros, IRF4, Cereblon in DLBCL cell lines; format: cell-based, human
Description: Immunoblots were probed with antibodies recognizing: Aiolos, Ikaros, Cereblon, IRF4, c-myc, CD44, EZH2, EBF 1, PU. 1, and β-actin. Signals were detected with a LI-COR imager
The following steps can be performed to harvest cells in preparation for Western Blot analysis. The steps are performed on ice and any centrifugation is performed in a 4° C. refrigerated centrifuge. RIPA lysis buffer (Pierce, cat #89900) is first prepared by adding […] proteinase inhibitors (Pierce, cat #78443) to 1 mL of RIPA buffer. Subsequently, cells are washed once in ice-cold phosphate buffered saline (PBS). The cells are then lysed with 0.25 mL RIPA lysis buffer. The PBMCs are placed on ice for 30 minutes and vortexed every 10 minutes. Lysates are frozen and stored at −80° C. prior to further processing.
Lysates are placed in a QIAshredder® tube (QIAGEN, cat #79656) and spun down 30 sec, top speed (13200 rpm) in an Eppendorf benchtop centrifuge (Model 5415 R). The lysate is then transferred to a 1.5 mL clear Eppendorf tube and spun down 10 min at top speed. The supernatent is collected without disturbing the cell debris pellet. The supernatent is dry ice frozen and stored at −80° C. prior to analysis.
The protein concentration in supernatent is measured using BCA assay and the expected protein yield is about 0.5-5 μg/μL, or 125-1250 μg total. Approximately ≥10 μg protein per lane is loaded for western blotting (IRF4, IKZF3, etc.) using antibodies against the human proteins.
Membranes are immunblotted with anti-Aiolos (Santa Cruz Biotechnology, Dallas, Tex.), anti-Ikaros (Millipore, Billerica, Mass.) and anti-Actin (Sigma, St. Louis, Mo.; or LI-COR Biosciences, Lincoln, Nebr.) and secondary antibodies (LI-COR Biosciences, Lincoln, Nebr.). The blots are analyzed on Odyssey imager (LI-COR Biosciences, Lincoln, Nebr.).

IFN pathway = test: effect on IFN pathway (FIG. 13); format: cell-based
MDS-L = test: 4 d BrdU cell assay / tritiated thymidine, sensitivity; format: cell-based
Description: as §1

HNT-34 = test: as above; format: cell-based
Description: as §1

Question: With Nc1cccc2c1CN(C1CCC(=O)NC1=O)C2=O (stereo not shown) [lenalidomide, 3-(4-amino-1-oxo-1,3-dihydro-isoindol-2-yl)-piperidine-2,6-dione] as the molecule, how does the pEC50 [1] read?
Answer: < 5.00

Question: And the “log2FC CSNK1A1” value (AML cell line (HNT-34); 8 hours)?
Answer: −1.6

Question: And the “log2FC IKZF1” value (AML cell line (HNT-34); 8 hours)?
Answer: −2.1

Question: What about the “log2FC CALM1” value (AML cell line (HNT-34); 24 hours) of the same molecule?
Answer: −1.1

Question: And the “log2FC CCNA2” value (AML cell line (HNT-34); 24 hours)?
Answer: −1.1

Question: What about the “log2FC CSNK1A1” value (AML cell line (HNT-34); 24 hours) of the same molecule?
Answer: −1.4

Question: And the “log2FC IKZF1” value (AML cell line (HNT-34); 24 hours)?
Answer: −2.4

Question: And the “log2FC SERP1NH1” value (AML cell line (HNT-34); 24 hours)?
Answer: 1.1

Question: What about the “log2FC ZFP91” value (AML cell line (HNT-34); 24 hours) of the same molecule?
Answer: −1.4

Question: And the “log2FC ARHGAP18” value (AML cell line (HNT-34); 72 hours)?
Answer: 1.0

Question: What about the “log2FC CASS4” value (AML cell line (HNT-34); 72 hours) of the same molecule?
Answer: 1.0

Question: What about the “log2FC CORO1B” value (AML cell line (HNT-34); 72 hours) of the same molecule?
Answer: 1.4

Question: And the “log2FC CSNK1A1” value (AML cell line (HNT-34); 72 hours)?
Answer: −1.5

Question: What about the “log2FC DAB2” value (AML cell line (HNT-34); 72 hours) of the same molecule?
Answer: 1.3

Question: What about the “log2FC HSPB1” value (AML cell line (HNT-34); 72 hours) of the same molecule?
Answer: 1.5

Question: What about the “log2FC IKZF1” value (AML cell line (HNT-34); 72 hours) of the same molecule?
Answer: −2.4

Question: And the “log2FC ITM2C” value (AML cell line (HNT-34); 72 hours)?
Answer: −1.2

Question: And the “log2FC PPFIBP1” value (AML cell line (HNT-34); 72 hours)?
Answer: 1.2

Question: What about the “log2FC SERPINH1” value (AML cell line (HNT-34); 72 hours) of the same molecule?
Answer: 1.7

Question: What about the “log2FC ZFP91” value (AML cell line (HNT-34); 72 hours) of the same molecule?
Answer: −1.1

Question: And the “log2FC CSNK1A1” value ([2]; 10 micromolar, 8 hours)?
Answer: −1.6

Question: And the “log2FC IKZF1” value ([2]; 10 micromolar, 8 hours)?
Answer: −2.1

Question: What about the “log2FC CCNA2” value ([2]; 10 micromolar, 24 hours) of the same molecule?
Answer: −1.1

Question: And the “log2FC CSNK1A1” value ([2]; 10 micromolar, 24 hours)?
Answer: −1.4

Question: And the “log2FC IKZF1” value ([2]; 10 micromolar, 24 hours)?
Answer: −2.4

Question: What about the “log2FC SERPINH1” value ([2]; 10 micromolar, 24 hours) of the same molecule?
Answer: 1.1

Question: What about the “log2FC ZFP91” value ([2]; 10 micromolar, 24 hours) of the same molecule?
Answer: −1.4

Question: What about the “log2FC ARHGAP18” value ([2]; 10 micromolar, 72 hours) of the same molecule?
Answer: 1.0

Question: What about the “log2FC CASS4” value ([2]; 10 micromolar, 72 hours) of the same molecule?
Answer: 1.0

Question: What about the “log2FC CORO1B” value ([2]; 10 micromolar, 72 hours) of the same molecule?
Answer: 1.4

Question: What about the “log2FC CSNK1A1” value ([2]; 10 micromolar, 72 hours) of the same molecule?
Answer: −1.5

Question: What about the “log2FC CYTL1” value ([2]; 10 micromolar, 72 hours) of the same molecule?
Answer: −1.2

Question: And the “log2FC DAB2” value ([2]; 10 micromolar, 72 hours)?
Answer: 1.3

Question: What about the “log2FC HSPB1” value ([2]; 10 micromolar, 72 hours) of the same molecule?
Answer: 1.5

Question: What about the “log2FC IKZF1” value ([2]; 10 micromolar, 72 hours) of the same molecule?
Answer: −2.4

Question: What about the “log2FC ITM2C” value ([2]; 10 micromolar, 72 hours) of the same molecule?
Answer: −1.2

Question: What about the “log2FC PPFIBP1” value ([2]; 10 micromolar, 72 hours) of the same molecule?
Answer: 1.2

Question: And the “log2FC SERP1NH1” value ([2]; 10 micromolar, 72 hours)?
Answer: 1.7

Question: And the “log2FC YEATS2” value ([2]; 10 micromolar, 72 hours)?
Answer: 2.5

Question: What about the “log2FC ZFP91” value ([2]; 10 micromolar, 72 hours) of the same molecule?
Answer: −1.1

Question: And the “down-regulation of Ikaros” value ([2]; 72 hrs, most down-regulated protein)?
Answer: about 5 fold

Question: What about the “down-regulation of CSNK1A1” value ([2]; 72 hrs, second most down-regulated protein) of the same molecule?
Answer: about 3 fold

Question: And the “CSNK1A1 and Ikaros proteins levels” value (CSNK1A1 (CK1α), Ikaros)?
Answer: decreased

Question: What about the “patients with both CSNK1A1 and Ikaros modulated (down-regulated)” value (CSNK1A1, Ikaros) of the same molecule?
Answer: 4 of 5

Question: What about the “effect on CSNK1A1 protein” value (ABC-DLBCL cell line) of the same molecule?
Answer: decreases

Question: And the “sensitivity of ABC DLBCL cell lines” value [3]?
Answer: sensitive

Question: What about the “sensitivity of GCB cell lines” value [3] of the same molecule?
Answer: less sensitive

Question: What about the IRF4 levels ([4]; DLBCL cell lines, 1 μM or 10 μM, within 72 hours) of the same molecule?
Answer: reduce

Question: And the Aiolos levels ([4]; Karpas 422 (GCB) and TMD8 (ABC), 10 μM, 1, 6 or 12 hours, vs DMSO)?
Answer: decrease

Question: And the “Aiolos and Ikaros levels” value ([4]; WSU-DLCL2 (GCB) and OCI-LY10 (ABC), 10 μM, 1, 6 or 12 hours, vs DMSO)?
Answer: decreasing

Question: What about the CRBN levels ([4]; nine GCB and ABC DLBCL cell lines, 1 μM or 10 μM, 72 hours) of the same molecule?
Answer: remained constant

Question: What about the “Aiolos and Ikaros levels” value ([4]; nine GCB and ABC DLBCL cell lines, 1 μM or 10 μM, 72 hours, vs DMSO) of the same molecule?
Answer: decreasing

Question: What about the “IFIT1, IFIT3, DDX58, XAF1, IFIH1, and OAS3 protein expression” value (IFN pathway; FIG. 13A) of the same molecule?
Answer: upregulates

Question: And the “DDX58, IFI27, IFIT1, IFIT3, DDX58, and XAF1 gene expression” value (IFN pathway; FIG. 13B)?
Answer: upregulates

Question: What about the “ISG15 and OAS3 gene expression” value (IFN pathway; FIG. 13C) of the same molecule?
Answer: upregulates

Question: What about the IRF changes (IFN pathway; FIG. 13E) of the same molecule?
Answer: induces

Question: And the “IFIT1 and IFIT3 protein expression” value (IFN pathway; FIG. 13F)?
Answer: upregulates

Question: And the IKKE protein level (IFN pathway; FIG. 13F)?
Answer: reduces

Question: What about the “TBK1 phosphorylation (TBK1-PO4)” value (IFN pathway; FIG. 13F) of the same molecule?
Answer: upregulates

Question: And the “levels of STAT or phosphorylated STAT” value (IFN pathway; FIG. 13G)?
Answer: induces changes

Question: And the pEC50 (MDS-L; 96 h, MDS-L, 4 d BrdU)?
Answer: 5.82

Question: What about the “sensitivity of MDS-L cells” value (MDS-L; FIG. 22B) of the same molecule?
Answer: sensitive

Question: And the pEC50 (HNT-34; 96 h, HNT-34, 4 d BrdU)?
Answer: 6.22

Question: What about the “sensitivity of HNT-34 cells” value (HNT-34; FIG. 22B) of the same molecule?
Answer: sensitive
